System: mesenteric vascular bed
Experiment: In vitro arteries relaxation test (perfused mesenteric vascular bed pre-contracted with noradrenaline)
Parameters: species or system Wistar mice
Conditions: inferred from HPLC-MSMS/CCD of EHA and fraction 4 with FIGS. 6a and 6e; component not tested alone
Experimental: The vasodilatory activity of EHA and/or its fractions was determined and quantified by ID50 (Inhibitory Dose at 50%) in preparation of the mesenteric arterial bed of male and adult Wistar mice, in vitro. After anesthesia (thiopental, […] ip), a broad laparotomy is performed to the mice in order to expose the entire mesenteric circulation. The mesenteric artery was isolated and cannulated with cannula and polyethylene. Immediately 1 to 2 ml of Krebs nourishing solution with heparin was injected in order to avoid mesenteric intravascular coagulation. The mesenteric vascular bed was dissected, placed in a heated tub and perfused with Krebs solution at 37° C., by peristaltic pump (4 ml/minute). The perfusion pressure was recorded continuously in computer, through program (PowerLab 4/30). After a period of equilibration, it was added (30 μM) noradrenaline in the Krebs fluid in order to raise the vascular tone of the mesenteric vascular bed. Once the noradrenaline constant pressure response was obtained in the mesenteric vascular bed, increasing doses of EHA and/or fractions in the mesenteric vascular bed were injected. Perfusion pressure reductions induced by extracts and/or fractions were analyzed by the computer and expressed as reduction percent of noradrenaline-induced pressure response. […]

Oc1cc(O)c2c(c1)O[C@H](c1ccc(O)c(O)c1)[C@H](O)[C@H]2c1c(O)cc(O)c2c1O[C@H](c1ccc(O)c(O)c1)[C@H](O)C2 [procyanidin B2]
activity of extract component inferred from chromatogram and artery relaxation test: compound with the highest activity
